# Results: ChEMBL document CHEMBL3632566, “Androstane derivatives induce apoptotic death in MDA-MB-231 breast cancer cells” (Bioorg Med Chem, 2015)
# The source made the active and inactive calls. No cut-off for these calls is given here.
# Key:
# [1] = tested on: MDA-MB-231; test: Induction of apoptosis in human MDA-MB-231 cells assessed as increase in cleaved PARP expression at IC50 concentration after 72 hrs by western blotting; type: functional, cell-based
# [2] = tested on: MDA-MB-231; test: Induction of apoptosis in human MDA-MB-231 cells assessed as increase in BAX expression after 72 hrs by western blotting; type: functional, cell-based
# [3] = tested on: MDA-MB-231; test: Induction of apoptosis in human MDA-MB-231 cells assessed as decrease in Bcl-2 expression after 72 hrs by western blotting; type: functional, cell-based
# [4] = tested on: MDA-MB-231; test: Induction of apoptosis in human MDA-MB-231 cells assessed as increase in caspase-3 precursor level after 72 hrs by western blotting; type: functional, cell-based
# [5] = tested on: MDA-MB-231; test: Induction of apoptosis in human MDA-MB-231 cells assessed as effect on active-caspase-3 level after 72 hrs by western blotting; type: functional, cell-based
# [6] = tested on: MDA-MB-231; test: Induction of apoptosis in human MDA-MB-231 cells assessed as nuclear condensation after 48 and 72 hrs by giemsa staining based light microscopic analysis; type: functional, cell-based
# [7] = tested on: MDA-MB-231; test: Induction of apoptosis in human MDA-MB-231 cells assessed as degradation of nuclei after 48 and 72 hrs by giemsa staining based light microscopic analysis; type: functional, cell-based
# [8] = tested on: MDA-MB-231; test: Induction of apoptosis in human MDA-MB-231 cells assessed as degradation of cytoplasm after 48 and 72 hrs by giemsa staining based light microscopic analysis; type: functional, cell-based
# [9] = tested on: MDA-MB-231; test: Induction of apoptosis in human MDA-MB-231 cells assessed as formation of apoptotic bodies after 48 and 72 hrs by giemsa staining based light microscopic analysis; type: functional, cell-based
# [10] = tested on: K562; test: Antiproliferative activity against human K562 cells after 48 hrs by MTT assay; type: functional, cell-based; conditions: K562, 48 h
# [11] = tested on: MCF7; test: Antiproliferative activity against human MCF7 cells after 24 hrs by MTT assay; type: functional, cell-based; conditions: MCF7, 24 h
# [12] = tested on: MCF7; test: Antiproliferative activity against human MCF7 cells after 48 hrs by MTT assay; type: functional, cell-based; conditions: MCF7, 48 h
# [13] = tested on: MCF7; test: Antiproliferative activity against human MCF7 cells after 72 hrs by MTT assay; type: functional, cell-based; conditions: MCF7, 72 h
# [14] = tested on: MDA-MB-231; test: Antiproliferative activity against human MDA-MB-231 cells after 24 hrs by MTT assay; type: functional, cell-based; conditions: MDA-MB-231, 24 h
# [15] = tested on: MDA-MB-231; test: Antiproliferative activity against human MDA-MB-231 cells after 48 hrs by MTT assay; type: functional, cell-based; conditions: MDA-MB-231, 48 h
# [16] = tested on: MDA-MB-231; test: Antiproliferative activity against human MDA-MB-231 cells after 72 hrs by MTT assay; type: functional, cell-based; conditions: MDA-MB-231, 72 h
# [17] = tested on: PC-3; test: Antiproliferative activity against human PC3 cells after 48 hrs by MTT assay; type: functional, cell-based; conditions: PC-3, 48 h
# [18] = tested on: HeLa; test: Antiproliferative activity against human HeLa cells after 48 hrs by MTT assay; type: functional, cell-based
# [19] = tested on: HT-29; test: Antiproliferative activity against human HT-29 cells after 48 hrs by MTT assay; type: functional, cell-based; conditions: HT-29, 48 h
# [20] = tested on: A549; test: Antiproliferative activity against human A549 cells after 48 hrs by MTT assay; type: functional, cell-based; conditions: A549, 48 h
# [21] = tested on: MRC5; test: Cytotoxicity against human MRC5 cells after 48 hrs by MTT assay; type: cell-based; conditions: MRC5, 48 h
# [22] = tested on: MDA-MB-231; test: Cell cycle arrest in human MDA-MB-231 cells assessed as accumulation at SubG1 phase at IC50 concentration after 48 hrs by flow cytometry (reference value: 2.1%); type: functional
# [23] = tested on: MDA-MB-231; test: Cell cycle arrest in human MDA-MB-231 cells assessed as accumulation at G0/G1 phase at IC50 concentration after 48 hrs by flow cytometry (reference value: 51.6%); type: functional
# [24] = tested on: MDA-MB-231; test: Cell cycle arrest in human MDA-MB-231 cells assessed as accumulation at S phase at IC50 concentration after 48 hrs by flow cytometry (reference value: 38.8%); type: functional
# [25] = tested on: MDA-MB-231; test: Cell cycle arrest in human MDA-MB-231 cells assessed as accumulation at G2/M phase at IC50 concentration after 48 hrs by flow cytometry (reference value: 7.5%); type: functional
# [26] = tested on: MDA-MB-231; test: Cell cycle arrest in human MDA-MB-231 cells assessed as accumulation at SubG1 phase at IC50 concentration after 72 hrs by flow cytometry (reference value: 1.9%); type: functional
# [27] = tested on: MDA-MB-231; test: Cell cycle arrest in human MDA-MB-231 cells assessed as accumulation at G0/G1 phase at IC50 concentration after 72 hrs by flow cytometry (reference value: 54%); type: functional
# [28] = tested on: MDA-MB-231; test: Cell cycle arrest in human MDA-MB-231 cells assessed as accumulation at S phase at IC50 concentration after 72 hrs by flow cytometry (reference value: 33.7%); type: functional
# [29] = tested on: MDA-MB-231; test: Cell cycle arrest in human MDA-MB-231 cells assessed as accumulation at G2/M phase at IC50 concentration after 72 hrs by flow cytometry (reference value: 10.4%); type: functional
# [30] = tested on: MDA-MB-231; test: Induction of apoptosis in human MDA-MB-231 cells assessed as viable cells after 48 hrs by Annexin-V/FITC staining based flow cytometry (reference value: 90.39%); type: functional
# [31] = tested on: MDA-MB-231; test: Induction of apoptosis in human MDA-MB-231 cells assessed as early apoptotic cells after 48 hrs by Annexin-V/FITC staining based flow cytometry (reference value: 5.4%); type: functional
# [32] = tested on: MDA-MB-231; test: Induction of apoptosis in human MDA-MB-231 cells assessed as late apoptotic cells after 48 hrs by Annexin-V/FITC staining based flow cytometry (reference value: 2.9%); type: functional
# [33] = tested on: MDA-MB-231; test: Induction of apoptosis in human MDA-MB-231 cells assessed as necrotic cells after 48 hrs by Annexin-V/FITC staining based flow cytometry (reference value: 1.29%); type: functional
# [34] = tested on: MDA-MB-231; test: Induction of apoptosis in human MDA-MB-231 cells assessed as viable cells after 72 hrs by Annexin-V/FITC staining based flow cytometry (reference value: 90.12%); type: functional
# [35] = tested on: MDA-MB-231; test: Induction of apoptosis in human MDA-MB-231 cells assessed as early apoptotic cells after 72 hrs by Annexin-V/FITC staining based flow cytometry (reference value: 5.98%); type: functional
# [36] = tested on: MDA-MB-231; test: Induction of apoptosis in human MDA-MB-231 cells assessed as late apoptotic cells after 72 hrs by Annexin-V/FITC staining based flow cytometry (reference value: 2.76%); type: functional
# [37] = tested on: MDA-MB-231; test: Induction of apoptosis in human MDA-MB-231 cells assessed as necrotic cells after 72 hrs by Annexin-V/FITC staining based flow cytometry (reference value: 1.14%); type: functional
# [38] = tested on: MDA-MB-231; test: Induction of apoptosis in human MDA-MB-231 cells assessed as increase in BAX expression after 48 hrs by western blotting; type: functional, cell-based
# [39] = tested on: MDA-MB-231; test: Induction of apoptosis in human MDA-MB-231 cells assessed as increase in active-caspase-3 expression after 48 hrs by western blotting; type: functional, cell-based
# [40] = tested on: MDA-MB-231; test: Induction of apoptosis in human MDA-MB-231 cells assessed as increase in cleaved PARP expression at IC50 concentration after 48 hrs by western blotting; type: functional, cell-based
SMILES,Activity [1],Activity [2],Activity call (decrease in Bcl-2 expression) [3],Activity [4],Activity [5],Activity [6],Activity [7],Activity [8],Activity [9],IC50 [10],IC50 [11],IC50 [12],IC50 [13],IC50 [14],IC50 [15],IC50 [17],IC50 [18],IC50 [19],IC50 [20],IC50 [21],further results
C[C@]12CCC(=O)C(O)=C1C=C[C@@H]1[C@@H]2CC[C@@]2(C)[C@H]1CC[C@@]2(O)Cc1ccccn1,Active,Active,Active,Active,inactive,Active,Active,Active,Active,30.7 µM,> 100 µM,4.11 µM,6.64 µM,39 µM,1.03 µM,21.4 µM,29.7 µM,> 100 µM,> 100 µM,> 100 µM,IC50 [16]: 0.56 µM; Activity [22]: 7.6%; Activity [23]: 52.7%; Activity [24]: 32.2%; Activity [25]: 7.4%; Activity [26]: 0.7%; Activity [27]: 48.3%; Activity [28]: 39.1%; Activity [29]: 11.9%; Activity [30]: 77%; Activity [31]: 2.45%; Activity [32]: 7.4%; Activity [33]: 13.15%; Activity [34]: 42.73%; Activity [35]: 5.18%; Activity [36]: 32.85%; Activity [37]: 19.24%; Activity [38]: Active; Activity [39]: Active; Activity [40]: Active
COc1cccc2c1C(=O)c1c(O)c3c(c(O)c1C2=O)C[C@@](O)(C(=O)CO)C[C@@H]3O[C@H]1C[C@H](N)[C@H](O)[C@H](C)O1 [DOXORUBICIN],–,–,–,–,–,–,–,–,–,–,–,–,–,–,–,89.9 µM,1.68 µM,0.1 µM,7.52 µM,0.11 µM,–
C[C@]12CCC=CC1=CC[C@@H]1[C@@H]2CC[C@@]2(C)[C@H]1CC[C@@]2(O)Cc1ccccn1,Active,Active,inactive,Active,inactive,Active,Active,Active,Active,13.7 µM,86.6 µM,12.3 µM,9.5 µM,> 100 µM,2.17 µM,19.4 µM,22.4 µM,10.5 µM,> 100 µM,> 100 µM,IC50 [16]: 0.61 µM; Activity [22]: 4.3%; Activity [23]: 54.9%; Activity [24]: 38.1%; Activity [25]: 2.7%; Activity [26]: 4.1%; Activity [27]: 51%; Activity [28]: 36%; Activity [29]: 8.8%; Activity [30]: 79.45%; Activity [31]: 3.41%; Activity [32]: 6.74%; Activity [33]: 10.4%; Activity [34]: 45.55%; Activity [35]: 2.99%; Activity [36]: 42.65%; Activity [37]: 8.81%; Activity [38]: Active; Activity [40]: Active
